Reference: patent publication US8940798B2, “Compounds useful for treating and/or preventing disease-associated bone loss” (Centre National de al Recherche Scientifique (CNRS), priority 2011, dated 2015)

Key:
Assay type in all cases: cell-based
[1] = biological target: T1, Dock5-DHR2 (Mus musculus, UniProt B2RY04); test: Active (GTP-bound) Rac1 pull-down in 293T cells expressing GFP-fused Dock5-DHR2; settings: HEK293T cells, treated for 1 hour, 1% DMSO, western blot
T1 construct: Dock5 DHR2 domain (aminoacids E1119 to L1667) was cloned into pEGFP (Clontech) or myc tagged in pRs426Met (21); expressed in transfected cells; host or cells: HEK-293T cells
T1 sequence (B2RY04 1119-1667): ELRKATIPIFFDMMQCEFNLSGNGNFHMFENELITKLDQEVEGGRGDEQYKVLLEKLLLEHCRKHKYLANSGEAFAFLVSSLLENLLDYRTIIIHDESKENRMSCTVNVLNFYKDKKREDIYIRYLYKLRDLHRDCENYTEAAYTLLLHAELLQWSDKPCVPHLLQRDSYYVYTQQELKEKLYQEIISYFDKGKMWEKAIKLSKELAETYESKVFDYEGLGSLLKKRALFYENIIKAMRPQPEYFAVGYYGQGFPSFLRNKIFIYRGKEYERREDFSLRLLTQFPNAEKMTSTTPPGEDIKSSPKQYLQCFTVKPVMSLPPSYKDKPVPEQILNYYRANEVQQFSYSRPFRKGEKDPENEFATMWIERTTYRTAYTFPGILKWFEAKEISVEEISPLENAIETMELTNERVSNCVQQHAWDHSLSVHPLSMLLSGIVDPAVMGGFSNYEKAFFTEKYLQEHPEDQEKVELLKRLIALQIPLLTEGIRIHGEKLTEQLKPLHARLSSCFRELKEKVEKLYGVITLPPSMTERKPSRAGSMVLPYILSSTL
Text: (§1) FIGS. 5A-5H: Inhibition of bone resorption by an inhibitor of Rac1 activation by Dock5. (FIG. 5A) Principle of the yeast exchange assay used to identify inhibitors of Dock5 exchange activity. Wild type Rac1 is fused to LexA DNA binding domain (LexA) and its effector Kinectin (Kin) to GAL4 activation domain (GAD). Expression of Dock5-DHR2 activates Rac1, which binds to kinectin, leading to the expression of his3 and then yeast […] for histidine. Inhibitors of Dock5-DHR2 revert Rac1 activation. (FIG. 5B) Growth curves of yeasts expressing Rac1 and Kinectin with (open triangles) and without (dots) Dock5-DHR2, in medium complemented (plain lines) or not (dotted lines) with histidine. (FIG. 5C) Structure of N-(3,5-dichlorophenyl)benzensulfonamide (C21). […] (FIG. 5F) Number of OCs (OC) after a 24-hour incubation with the indicated concentrations of C21, expressed as a % of DMSO control (0 μM C21). […] To activate Rac1, OCs at day 4 of differentiation were starved overnight in the presence of 2% serum, stimulated with 100 ng/ml M-CSF or lifted and replated onto vitronectin-coated plates for 30 minutes prior to lysis, and active Rac1 levels were measured G-LISA kit according to manufacturer's instructions (Cytoskeleton).

[2] = biological target: T2, GEF TrioN (Homo sapiens, UniProt O75962); test: Active (GTP-bound) Rac1 pull-down in 293T cells expressing GFP-fused TrioN; settings: HEK293T cells, treated for 1 hour, 1% DMSO, western blot
T2 construct: expressed in transfected cells; host or cells: 293T cells
Text: as §1

[3] = biological target: T1, Dock5-DHR2; test: Yeast exchange assay screening for Dock5 inhibitors; settings: screen of 2,640 compounds at 100 μM, 1% DMSO
Text: FIGS. 5A-5H: Inhibition of bone resorption by an inhibitor of Rac1 activation by Dock5. (FIG. 5A) Principle of the yeast exchange assay used to identify inhibitors of Dock5 exchange activity. Wild type Rac1 is fused to LexA DNA binding domain (LexA) and its effector Kinectin (Kin) to GAL4 activation domain (GAD). Expression of Dock5-DHR2 activates Rac1, which binds to kinectin, leading to the expression of his3 and then yeast […] for histidine. Inhibitors of Dock5-DHR2 revert Rac1 activation. (FIG. 5B) Growth curves of yeasts expressing Rac1 and Kinectin with (open triangles) and without (dots) Dock5-DHR2, in medium complemented (plain lines) or not (dotted lines) with histidine. (FIG. 5C) Structure of N-(3,5-dichlorophenyl)benzensulfonamide (C21). (FIG. 5D) Western blots showing total and GTPbound Rac1 (upper panels) and GFP and GFP-fused Dock5-DHR2 in extracts of 293T cells treated for 1 hour with the indicated concentrations of C21 in the presence of 1% DMSO. (FIG. 5E) Western blots showing total and GTP-bound Rac1 (upper panels) and GFP and GFP-fused TrioN in extracts of 293T cells treated as in FIG. 5D. (FIG. 5F) Number of OCs (OC) after a 24-hour incubation with the indicated concentrations of C21, expressed as a % of DMSO control (0 μM C21). […] (FIG. 5G) CTx concentration in the medium of OCs on bone in the absence (O) or presence of 25 μM C21. […]

`O=S(=O)(Nc1cc(Cl)cc(Cl)c1)c1ccccc1` [C21, N-(3,5-dichlorophenyl)benzenesulfonamide] was tested, and the “Activation of Rac1 by Dock5-DHR2” value [1] was “efficiently inhibits”, the “Rac1 activation by the GEF TrioN” value [2] was “no effect” and the “Inhibition of growth of Dock5 DHR2-expressing yeasts in Histidine deprived medium without affecting growth in Histidine complemented medium” value [3] was “identified”.
